Data set [1] deals with primary HSCs. Description: Illumina array: LPS-treated primary rat HSCs with vitamin D3 or LXR ligand T1317 (Table 3). Particulars: co-treatment with LPS; T1317 1 μM, vitamin D3 1 nM.
Method: (§2) For Illumina microarray analysis, Illumina TotalPrep RNA Amplification Kit (Ambion; Catalog # IL1791) was used with the manufacturer's instructions for the RNA amplification. […] Essentially, biotinylated cRNA was prepared according to the manufacturer's directions starting with 200 ng total RNA. Hybridization to the Illumina Sentrix RatRef-12 v.1 and Mouse RefSeq version 2 Expression BeadChips (Illumina, Inc., San Diego, Calif.), washing and scanning were performed according to the Illumina BeadStation 500× manual (revision C). […] RNA is isolated using Trizol and the quality/integrity of the total RNA verified using a Bioanalyzer (Agilent).
(§3) Microarray experiments were repeated two times with RNA from two experiments where HSCs were isolated from two different rats and for each condition triplicate samples were used. The “Detection Score” was used to determine expression using the Illumina platform. It is a statistical measure in the BeadStudio software (version 1.5.0.34), which is computed based on the Z-value of a gene relative to the Z-value of the negative controls. The Illumina data were adjusted (“normalized”) using a cubic spline function. […] The expression difference score, DiffScore, takes into account background noise and sample variability. […] Illumina expression arrays utilize gene-specific 50-mer oligonucleotide probes with an average of 30 replicates of each probe bead per individual array.
Isolated primary HSCs were cultured on plastic tissue culture plates for 40 hours prior to treatment with or without vitamin D3 (1 nM) in the presence or absence of 15 ng/ml of LPS for 24 hours. Cells were then harvested, total RNA extracted, and biotin labeled cRNA was prepared for hybridization to Illumina Rat RefSeq version 1 expression arrays. […] The data generated from these arrays was processed using Illumina BeadStudio software to identify gene expression changes between the different samples.
A further data set relates to MCD diet model of NASH. Description: Methionine and choline deficient (MCD) diet model of NASH. In kind it is in vivo, mouse. Conditions: mice on MCD diet, 1 IU (25 ng) per gram body weight twice weekly. An excerpt: The methionine and choline deficient (MCD) diet model of nonalcoholic steatohepatitis (NASH) was originally developed in the mid 1990's to provide a suitable animal model to study the pathogenesis of this common human disease (Weltman et al., 1996. Gastroenterology., 111(6):1645-53). It faithfully reproduces the hepatic steatosis, lobular inflammation and fibrosis progressing over time to more severe fibrosis as observed in the human condition. The mouse version of this model has previously been well characterized and reproducibly mice develop hepatic steatosis, inflammation and extensive perivenular and pericellular fibrosis by 10 weeks.
Male C57black wild-type and the VDR floxed knockout mice are fed ad libitum a high fat, MCD diet (ICN cat no: 960439) for up to 10 weeks. Controls are pair-fed the same diet supplemented with choline chloride (2 g/kg) and DL-methionine (3 g/kg). […]. […] Fibrosis is determined by Sirius Red staining of liver samples. Serum transaminases, lipids and bile acids and liver bile acids are quantified as previously published (Stedman et al., 2006. Proc Natl Acad Sci USA., 103(30):11323-8) and hepatic lipids, glutathione and lipid peroxidation also are analyzed using standard published protocols. Additional tissue portions are snap frozen in liquid nitrogen for later preparation of total RNA for gene expression studies by quantitative PCR and gene arrays.

For data set [2] the following is noted: cited from earlier work.
Data set [3] has as its target T1, VDR (Rattus norvegicus, UniProt P13053).
T1 sequence (P13053 1-423): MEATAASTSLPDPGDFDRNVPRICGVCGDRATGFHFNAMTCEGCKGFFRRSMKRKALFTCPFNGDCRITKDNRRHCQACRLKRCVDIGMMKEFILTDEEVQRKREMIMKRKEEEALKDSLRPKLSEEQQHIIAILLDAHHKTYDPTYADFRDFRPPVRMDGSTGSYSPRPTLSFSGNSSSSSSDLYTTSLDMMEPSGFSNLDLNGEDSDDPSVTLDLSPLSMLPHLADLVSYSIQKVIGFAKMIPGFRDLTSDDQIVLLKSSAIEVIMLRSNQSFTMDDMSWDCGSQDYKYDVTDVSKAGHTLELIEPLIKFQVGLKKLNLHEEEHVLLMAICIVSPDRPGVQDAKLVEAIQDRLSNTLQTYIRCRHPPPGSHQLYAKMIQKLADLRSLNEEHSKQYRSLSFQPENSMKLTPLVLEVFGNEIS
Particulars: rat SECs, FIG. 11A.

The target of data set [4] is T1, VDR. Conditions: rat Kupffer cells, FIG. 11B.
Data set [5] addresses T1, VDR. Nature of the data set: Real-time qPCR of VDR target and vitamin D metabolising genes in primary rat HSCs. The format is cell-based. Set-up: endogenous in cells; host or cells: primary rat hepatic stellate cells (Sprague-Dawley rats). Here is the method:
Activated HSCs were cultured on plastic rather than Matrigel in the same media described above. Kupffer cells (KCs) were cultured in Williams' medium E containing 10% FBS, 2 mM glutamine on plastic plates.
(§1) For qRT-PCR, 500 ng of deoxyribonuclease-treated total RNA was reverse transcribed into cDNA using SuperScript™ III reverse transcriptase essentially as described by the manufacturer (Invitrogen). Quantification of gene of interest mRNA was performed using a Rotor-Gene, RG 6000 (Corbett Research). […] Human B2M primers were from Applied Biosystems.
(In general: Quantitative PCR measures a nucleic acid by following its amplification.)

Data set [6] addresses T2, VDR (Homo sapiens, UniProt P11473).
T2 construct: endogenous in cells; host or cells: human LX-2 hepatic stellate cell line
T2 sequence (P11473 1-427): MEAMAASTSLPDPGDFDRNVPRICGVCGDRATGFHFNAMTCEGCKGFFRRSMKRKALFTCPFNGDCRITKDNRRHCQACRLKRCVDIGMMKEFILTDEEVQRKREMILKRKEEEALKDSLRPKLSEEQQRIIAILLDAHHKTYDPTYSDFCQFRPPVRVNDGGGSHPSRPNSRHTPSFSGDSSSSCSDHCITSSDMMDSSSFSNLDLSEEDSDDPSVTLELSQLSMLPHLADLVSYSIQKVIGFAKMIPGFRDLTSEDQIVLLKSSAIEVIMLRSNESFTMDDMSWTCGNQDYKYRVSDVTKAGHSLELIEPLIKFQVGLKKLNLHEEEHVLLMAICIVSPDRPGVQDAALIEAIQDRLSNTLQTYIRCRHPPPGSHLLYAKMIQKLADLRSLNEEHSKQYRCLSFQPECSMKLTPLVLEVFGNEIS
Nature of the data set: Real-time qPCR of CYP24A1 in human LX-2 cell line. The format is cell-based. Here is the method:
Human LX-2 cells were grown to 50% confluence in DMEM with 10% FBS in 6-Well plates.
as §1
TGFβ signaling is the key mediator in hepatic fibrogenesis, triggering the transition of HSCs into myofibroblast-like cells and thereby stimulating synthesis of ECM proteins. Thus, TGFβ1 is produced locally in the organ as part of the fibrotic process It has been previously reported that TGFB signaling can influence the activity of VDR-dependent genes, as depicted in (FIG. 8A). In this model, TGFβ activation results in SMAD3 phosphorylation, inducing its translocation into the nucleus where it associates with the ligand bound VDR complex. Phosphorylated SMAD3 acts as a co-activator in the VDR/vitaminD3 complex enhancing the transcriptional potential of VDR on target genes. To understand the interplay between TGFB and VDR signaling pathways, the effects of TGFβ on the well characterized VDR gene target Cyp24α1 were examined.

For data set [7], the system named is CCl4-induced liver fibrosis. Nature of the data set: CCl4-induced liver fibrosis model. The format is in vivo, mouse. The source says:
. The CCl4 model of chronic liver injury and fibrosis is a well established model of liver injury, inflammation, fibrosis and cirrhosis where CCL4 is metabolized in the liver by CYP2E to a trichloromethyl free radical, which reacts with oxygen to produces a highly reactive peroxytrichloromethyl radical that initiates a damaging cycle of lipid membrane peroxidation and cell death (Leclercq et al., 2001. J. Gastroenterology and Hepatol., 24:51-59). With iterative injury (3 months in mice), extensive scarring develops as indicated by transdifferentiation of HSCs into myofibroblasts, intense myofibroblast proliferation and progressive laying down of ECM components. Following cessation of CCl4 injections, the scarring resolves completely (Kanzler et al., 1999. Am J Physiol., 276(4 Pt 1):G1059-68). These distinct phases of injury, repair, and resolution make this an ideal model for studying both injury and repair mechanisms.
Eight week-old C57BL6 mice were injected with 2 ml/kg body weight of CCl4 i.p. (1:1 v/v in corn oil) or vehicle alone twice weekly for 4 to 12 weeks. Specifically, groups of mice (n=8 per group per time point) are sacrificed at 48 hours (acute injury), 4, 8 and 12 weeks. The animals were terminated after a period of 72 hours after the final CCl4 injection and whole liver, intestine and serum were collected for histological, cytological, biochemical and molecular analyses. […]. Control mice received vehicle alone.
Twice weekly administration of CCl4 for […] caused sustained hepatocyte damage as evidenced by significant increases in serum ALT levels and marked histological changes in liver sections stained with hematoxylin and eosin. Serum ALT, AST and triglyceride (TG) and hepatic lipid peroxides (by TBARs) and TG were measured biochemically. Liver histology was scored blindly by a histopathologist using the Brunt system to determine levels of steatosis and inflammation. Expression levels of key genes involved in BA (Sult2a1) and cholesterol metabolism, transport (Bsep, Ntcp, Mdr1&2, Mrp2&3, Oatp1, 2&4), and synthesis (Srebp2, Cyp7a1) and the NXRs (Lxr, Car, Pxr & Fxr) regulating these genes were determined by real-time quantitative PCR (QPCR) with results normalized to […] (B2M). Protein expression was examined in a select number of genes by Western blotting. Statistical analysis was completed on SPSS v14 using Kruschal Wallis H and Mann-Whitney U tests with p<0.05 considered significant

Data set [8] relates to primary HSCs. Description: Illumina array: TGFβ1-treated primary rat HSCs with vitamin D3 (Table 4). Particulars: co-treatment with TGFβ1 100 pM, vitamin D3 1 nM, 24 h.
Method: as §2, §3
The Illumina platform described above was used to identify genome-wide effects of vitamin D3-activated VDR on TGFβ signaling in primary rat HSCs. Isolated primary HSCs were cultured on plastic tissue culture plates for 40 hours prior to treatment with or without vitamin D3 (1 nM) in the presence or absence of TGFβ1 (100 pM) for 24 hours. Cells were then harvested, total RNA extracted, and biotin labeled cRNA was prepared for hybridization to an Illumina Rat RefSeq version 1 genome array. […] The data generated from these arrays was processed using Illumina BeadStudio software to identify gene expression changes between the different samples. The vitamin D3 mediated changes on TGFβ1 signaling were identified by comparing TGFβ1 and co-treated TGFβ1/vitamin D3 samples.

“Also recorded” adds a separate entry of the source. Read-outs that look alike come from different tables or passages of the source. A value given as a limit tells only on which side of the number the result lay.

`O=S(=O)(c1ccccc1)N(CC(F)(F)F)c1ccc(C(O)(C(F)(F)F)C(F)(F)F)cc1` [T1317]: in the data set with primary HSCs [1], the “Expression of neutrophil and monocyte attractants” value is “relatively few changes”; the “Gene induction of the interleukins IL-10 and 6” value is listed as “markedly decreased”.

Regarding `C=C1CC[C@H](O)C/C1=C/C=C1\CCC[C@]2(C)[C@@H]([C@H](C)CCCC(C)(C)O)CC[C@@H]12` [calcidiol, (5Z,7E)-9,10-Secocholesta-5,7,10(19)-triene-3β,25-diol monohydrate], the “Production of inflammatory and fibrogenic markers” value in the data set on MCD diet model of NASH is recorded as “reduced”. The “Levels associated with changes in calcium homeostasis” value in [2] (isolated reports) is “exceeding 500 nmol/l”. The “Serum calcidiol with no evidence of adverse effects” value in data set [2] (requiring a supply of 250 μg (10,000 IU)) is on record as under 140 nmol/L. Further, at VDR [3], the “VDR activation (Cyp24a1 mRNA expression)” value is on record as “also activated”. The “VDR activation (Cyp24a1 mRNA expression)” value at VDR [4] is “also activated”. The CYP24A1 expression result on VDR [5] (100 nM (10-fold higher dose), culture activated HSCs, listed as 25(OH) vitamin D3, monohydrate) was “moderately increasing; also recorded: barely induced”. Further, the “Concentration giving maximal induction of CYP24A1” value at VDR [5] (day 2 HSCs) is recorded as 10 nM. For the same molecule, the “Concentration giving maximal enhancement of CYP24A1” value on VDR [6] (LX-2 cells, day 2) amounted to 100 nM. Moreover, the CYP24A1 expression entry on VDR [6] (culture activated (day 7) LX-2 cells) is listed as “barely induced”. Further, in [7] (liver, CCl4 mice), the “Decrease of IL-α expression” value was “about 50%”, the “Decrease of MCP-1 expression” value is “about 50%”, the “Decrease of TGFβ1 expression” value is on record as “about 50%” and the TNF-α induction entry is reported as “no induction”. For the same molecule, the “Production of inflammatory and fibrogenic markers” value in data set [7] (mice, CCl4, 1 IU (25 ng) per gram body weight twice weekly, FIG. 9) is “significantly reduced”.

As to `C=C1CC[C@H](O)C/C1=C/C=C1\CCC[C@]2(C)[C@@H]([C@H](C)CCCC(C)C)CC[C@@H]12` [vitamin D3, reference compound], in the data set on primary HSCs [8], the “Induction of all collagen genes by TGFβ” value is listed as “markedly decreased” and the “Repression of MMP10 by TGFβ” value was “inhibited”. In the data set with primary HSCs [1], the “Expression of neutrophil and monocyte attractants” value is listed as “preferentially repressed”; the “Gene induction of the interleukins IL-10 and 6” value is recorded as “did not alter”.

The values are drawn from patent publication US8318708B2, “Use of vitamin D receptor agonists, ligands, and precursors to treat pancreatic fibrosis” (Salk Institute for Biological Studies, priority 2007, dated 2012).
